Here are results for one molecule from patent US20050049294A1, “Methods of using [3.2.0] heterocyclic compounds and analogs thereof” (priority 2003, published 2005).

Data set [1] addresses chymotrypsin-like activity of human erythrocyte 20S proteasomes (Homo sapiens, UniProt P28074). Put plainly: biochemical. To be noted: EC50, chymotrypsin-like activity of human erythrocyte 20S proteasomes, separate lots of proteasomes. As to the method:
The substrate, suc-LLVY-AMC, was prepared as a 20 mM solution in DMSO and stored at −20° C. Human erythrocyte 20S proteasomes were obtained from BIOMOL (Cat. # SE-221). The proteasome can cleave suc-LLVY-AMC into suc-LLVY and free AMC and the activity can then be determined by measuring the fluorescence of the released AMC (λex=390 nm and λem=460 nm ). The proteasomes were activated by SDS and stored on ice as with the experiments using rabbit muscle proteasomes. […] The series was then diluted 20-fold with assay buffer and pre-incubated with proteasomes at 37° C. The reaction was initiated with substrate, and the release of AMC was followed in a Fluoroskan microplate fluorimeter. Data were collected and plotted as the mean of triplicate points.

In data set [2] the test system is p21 and p27 in HEK293 cells and HEK293 NF-κB/Luciferase reporter clone. Put plainly: Western blot of cell cycle regulatory proteins p21 and p27. The format is cell-based, human. To be noted: various concentrations, preliminary results. The source says: The ubiquitin-proteasome pathway is an essential proteolytic system involved in cell cycle control by regulating the degradation of cyclins and cyclin-dependent kinase (Cdk) inhibitors such as p21 and p27. Pagano, et al., Science 269:682 (1995), Kisselev, et al., Chem Biol 8:739 (2001), King, et al., Science 274:1652 (1996). Furthermore, p21 and p27 protein levels are increased in the presence of proteasome inhibitors. Fukuchi, et al., Biochim Biophys Acta 1451:206 (1999), Takeuchi, et al., Jpn J Cancer Res 93:774 (2002).
The Western blots presented in FIG. 33 were reprobed using antibodies against p21 and p27 to determine the endogenous level of each protein and anti-Tubulin antibody was used to confirm equal loading of protein.
A general note: In western blotting, separated proteins are transferred to a membrane and probed.

The subject of another data set is MIA PaCa-2 cells. As to the kind of experiment: Cell growth inhibition (resazurin, 48 hours), MIA PaCa-2. Particulars: Table 2, MIA PaCa-2, human pancreatic carcinoma, read-out: EC50 (nM), mean ± SD. The data set is classed as cell-based. A general note: Resazurin is reduced to fluorescent resorufin, in cell work by metabolically active cells.
For another data set, the target named is CYP2D6 (Homo sapiens, UniProt P10635). Put plainly: Preliminary P450 inhibition screen, CYP2D6. The source says: These studies consisted of solubility assessment, LogD^7.4 determination and a preliminary screen to detect cytochrome P450 enzyme inhibition.
Sequence of CYP2D6 (P10635 whole entry): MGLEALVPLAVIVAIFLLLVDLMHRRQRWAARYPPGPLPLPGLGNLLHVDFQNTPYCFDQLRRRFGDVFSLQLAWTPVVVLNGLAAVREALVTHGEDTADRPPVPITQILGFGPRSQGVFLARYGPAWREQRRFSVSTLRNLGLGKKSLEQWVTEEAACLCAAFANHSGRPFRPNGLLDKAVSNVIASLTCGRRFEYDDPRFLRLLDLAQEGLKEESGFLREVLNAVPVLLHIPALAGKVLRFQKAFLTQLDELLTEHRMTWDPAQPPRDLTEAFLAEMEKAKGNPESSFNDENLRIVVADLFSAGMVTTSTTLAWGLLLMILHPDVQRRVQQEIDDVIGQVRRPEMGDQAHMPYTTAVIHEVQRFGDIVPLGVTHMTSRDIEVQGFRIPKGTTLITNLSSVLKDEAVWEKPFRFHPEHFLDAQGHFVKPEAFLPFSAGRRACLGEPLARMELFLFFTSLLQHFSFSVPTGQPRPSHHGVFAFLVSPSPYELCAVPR
In data set [3] the target is T1, chymotrypsin-like proteasome activity in packed whole blood lysate (Mus musculus, UniProt O55234).
T1 construct: The supernatant (Packed Whole Blood Lysate, PWBL) was transferred to a fresh tube; from tissue; host or cells: packed whole blood cells of Swiss-Webster mice, hypotonic lysate
T1 sequence (O55234 60-264): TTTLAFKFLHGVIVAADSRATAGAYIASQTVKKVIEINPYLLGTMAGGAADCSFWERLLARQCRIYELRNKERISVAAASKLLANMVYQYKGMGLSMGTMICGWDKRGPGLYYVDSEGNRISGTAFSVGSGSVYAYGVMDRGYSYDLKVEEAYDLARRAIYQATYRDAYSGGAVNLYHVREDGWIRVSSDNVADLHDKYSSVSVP
As to the kind of experiment: Whole blood proteasome activity (packed whole blood lysate, PWBL) of treated mice. The format is in vivo. As to the method:
In brief, frozen whole blood samples were thawed on ice for one hour, and resuspended in 700 μL of ice cold 5 mM EDTA, pH 8.0 in order to lyse the cells by hypotonic shock. This represents approximately 2-3 times the volume of the packed whole blood cells. Lysis was allowed to proceed for one hour, and the cellular debris was removed by centrifuigation at 14,000×g for 10 minutes. The supernatant (Packed Whole Blood Lysate, PWBL) was transferred to a fresh tube, and the pellet discarded. Protein concentration of the PWBL was determined by BCA assay (Pierce) using BSA as a standard.
Proteasome activity was determined by measuring the hydrolysis of a fluorogenic substrate specific for the chymotrypsin-like activity of proteasomes (suc-LLVY-AMC, Bachem Cat. 1-1395). […] Hydrolysis of the substrate results in the release of free AMC, which was measured fluorometrically by using λex=390 nm and λem=460 nm. The rate of hydrolysis in this system is linear for at least one hour. The hydrolysis rate of each sample is then normalized to relative fluorescent units per milligram of protein (RFU/mg).
The vehicle control consisted of 2% DMSO in 10% solutol. […] Packed whole blood cells were collected by centrifugation, washed with PBS, and re-centrifuged. All samples were stored at −80° C. prior to the evaluation of the proteasome activity. […]

Data set [4] relates to PARP and Pro-Caspase 3 cleavage in PC-3 cells. As to the kind of experiment: Cleavage of PARP and Pro-Caspase 3 (western blot), PC-3. The data set is classed as cell-based, human. Particulars: 100 nM, 0, 8 or 24 hours. How it is done: Total protein lysates were made and 20 μg of the lysates were then resolved under reducing/denaturing conditions and blotted onto nitrocellulose. The blots were then probed with anti-PARP or anti-caspase 3 antibodies followed by stripping and reprobing with an anti-actin antibody.

SMILES strings stand for the structures. “And” between values parts separate entries of the source, which are not always exact repeats. Identical values can stand only once.

`C[C@@]12OC(=O)[C@]1([C@@H](O)[C@@H]1C=CCCC1)NC(=O)[C@@H]2CCCl` [Formula II-16, Salinosporamide A]: the EC50 in data set [1] was ~0.25 nM and 0.045 to 0.247 nM and 0.045 to 0.25 nM. Moreover, the “p21 and p27 protein levels” value in data set [2] is recorded as “elevated”. For the same molecule, the concentration for a half-maximal effect (EC50) in the data set with MIA PaCa-2 cells stood at 46 nM. Further, on CYP2D6, testing at 10 µM gave an inhibition of 19%. Moreover, the “proteasomal activity in PWBL” value in data set [3] (male Swiss-Webster mice, i.v. or oral, 90 minutes after administration (FIG. 40)) was “profound decrease in proteasomal activity in PWBL”. In data set [3] (mouse, iv, 0.25 mg/kg i.v., mice, read-out: ex vivo proteasome inhibition in packed whole blood), the inhibition at […] came out at 94 ± 3%. For the same molecule, in data set [4], the “cleavage of PARP” value is “noticeable at 24 hours” and the “cleavage of Pro-Caspase 3” value is “not detected”.

For orientation: EC50 means the midpoint of the concentration-response curve. As usually defined, the inhibition is how much of the control response was suppressed.
